What was measured:
Assay in all cases: relative viability (nuclei count vs DMSO), 5 days (fraction); higher = more cells survive
AZD1208 + Pictilisib = compound: N[C@@H]1CCCN(c2c(/C=C3\SC(=O)NC3=O)cccc2-c2ccccc2)C1 [AZD1208] + CS(=O)(=O)N1CCN(Cc2cc3nc(-c4cccc5[nH]ncc45)nc(N4CCOCC4)c3s2)CC1 [Pictilisib] (partner 1 µM)
Outline: (§1)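 Each reported value is a median over duplicate plates. It expresses relative viability: treated-well nuclei count divided by vehicle-well nuclei count. Lung cancer cell lines in 1536-well plates were dosed by pin tool a day after seeding, alone with one drug or with a fixed anchor-drug dose plus five library-drug doses (not always all listed) in √10 steps, and nuclei were counted after 5 days.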

XMD14-99 + Foretinib = compound: CN1CCN(CC1)C2=CC(=C(C=C2)NC3=NC(=C(S3)C(=O)C4=C(C=CC=C4Cl)Cl)N)OC [XMD14-99] + COc1cc2c(Oc3ccc(NC(=O)C4(C(=O)Nc5ccc(F)cc5)CC4)cc3F)ccnc2cc1OCCCN1CCOCC1 [Foretinib] (partner 0.25 µM)
Outline: as §1

AZD1208 + Trametinib = compound: N[C@@H]1CCCN(c2c(/C=C3\SC(=O)NC3=O)cccc2-c2ccccc2)C1 [AZD1208] + CC(=O)Nc1cccc(-n2c(=O)n(C3CC3)c(=O)c3c(Nc4ccc(I)cc4F)n(C)c(=O)c(C)c32)c1 [Trametinib] (partner 0.02 µM)
Outline: as §1

XMD14-99 + Crizotinib = compound: CN1CCN(CC1)C2=CC(=C(C=C2)NC3=NC(=C(S3)C(=O)C4=C(C=CC=C4Cl)Cl)N)OC [XMD14-99] + C[C@@H](Oc1cc(-c2cnn(C3CCNCC3)c2)cnc1N)c1c(Cl)ccc(F)c1Cl [Crizotinib] (partner 1 µM)
Outline: as §1

| Cell Line | relative viability (AZD1208 + Pictilisib; first compound 0.08 µM) | relative viability (AZD1208 + Pictilisib; first compound 0.253 µM) | relative viability (AZD1208 + Pictilisib; first compound 0.8 µM) | relative viability (AZD1208 + Pictilisib; first compound 2.53 µM) | relative viability (AZD1208 + Pictilisib; first compound 8 µM) | relative viability (XMD14-99 + Foretinib; first compound 0.08 µM) | relative viability (XMD14-99 + Foretinib; first compound 0.8 µM) | relative viability (XMD14-99 + Foretinib; first compound 2.53 µM) | relative viability (XMD14-99 + Foretinib; first compound 8 µM) | relative viability (AZD1208 + Trametinib; first compound 0.08 µM) | relative viability (AZD1208 + Trametinib; first compound 0.253 µM) | relative viability (AZD1208 + Trametinib; first compound 0.8 µM) | relative viability (AZD1208 + Trametinib; first compound 2.53 µM) | relative viability (AZD1208 + Trametinib; first compound 8 µM) | relative viability (XMD14-99 + Crizotinib; first compound 0.08 µM) | relative viability (XMD14-99 + Crizotinib; first compound 0.8 µM) | relative viability (XMD14-99 + Crizotinib; first compound 2.53 µM) | relative viability (XMD14-99 + Crizotinib; first compound 8 µM) |
| --- | --- | --- | --- | --- | --- | --- | --- | --- | --- | --- | --- | --- | --- | --- | --- | --- | --- | --- |
| HARA | 0.349 | 0.373 | 0.452 | 0.286 | 0.363 | 0.791 | 0.793 | 0.748 | 0.757 | 0.551 | 0.743 | 0.761 | 0.542 | 0.35 | 0.994 | 0.938 | 0.864 | 0.646 |
| NCI-H2126 | 0.437 | 0.476 | 0.436 | 0.424 | 0.441 | 1.19 | 1.13 | 1.2 | 0.832 | 0.576 | 0.524 | 0.498 | 0.467 | 0.434 | 1.01 | 1.02 | 0.979 | 0.937 |
| NCI-H1437 | 0.369 | 0.388 | 0.271 | 0.246 | 0.247 | 1.25 | 1.05 | 1.06 | 0.891 | 0.423 | 0.597 | 0.358 | 0.419 | 0.408 | 0.843 | 0.905 | 0.822 | 0.684 |
| ChaGo-K-1 | 0.979 | 0.698 | 0.644 | 0.537 | 0.484 | 0.82 | 0.939 | 0.88 | 0.913 | 0.884 | 0.905 | 0.78 | 0.88 | 0.806 | 1.1 | 1.14 | 1.19 | 0.92 |
| NCI-H661 | 0.417 | 0.391 | 0.34 | 0.342 | 0.355 | 0.93 | 0.883 | 0.796 | 0.681 | 0.549 | 0.565 | 0.544 | 0.543 | 0.514 | 0.897 |  | 0.894 | 0.838 |
| COR-L23 | 0.738 | 0.87 | 0.725 | 0.693 | 0.75 | 0.901 | 0.962 | 0.812 | 0.572 | 0.511 | 0.581 | 0.525 | 0.57 | 0.301 | 0.684 | 0.614 | 0.51 | 0.33 |
| COR-L 105 | 0.369 | 0.3 | 0.353 | 0.366 | 0.451 | 1.06 | 1.25 | 0.991 | 0.734 | 0.435 | 0.366 | 0.408 | 0.625 | 0.378 | 0.709 | 0.88 | 0.721 | 0.444 |
| LK-2 | 0.373 | 0.349 | 0.29 | 0.383 | 0.266 | 0.99 | 1.17 | 0.991 | 1.2 | 0.574 | 0.502 | 0.511 | 0.445 | 0.474 | 0.232 | 0.193 | 0.2 | 0.223 |
| 201T | 0.644 | 0.641 | 0.649 | 0.62 | 0.686 | 1.05 | 1.1 | 1.01 | 0.956 | 0.749 | 0.716 | 0.721 | 0.725 | 0.732 | 1.03 | 1.02 | 1.01 | 0.917 |
| NCI-H647 | 0.463 | 0.371 | 0.37 | 0.339 | 0.364 | 1.3 | 1.15 | 1.22 | 1.01 | 0.383 | 0.503 | 0.567 | 0.471 | 0.358 | 0.948 | 0.928 | 1.01 | 0.741 |
| H3255 | 0.402 | 0.44 | 0.408 | 0.364 | 0.451 | 0.956 | 0.9 | 0.737 | 0.709 | 0.537 | 0.616 | 0.636 | 0.624 | 0.519 | 0.831 | 0.64 | 0.757 | 0.597 |
| NCI-H650 | 0.83 | 0.783 | 0.793 | 0.589 | 0.589 | 1.05 | 1.01 | 0.944 | 0.935 | 0.852 | 0.904 | 1.1 | 0.93 | 0.743 | 0.613 | 0.728 | 0.684 | 0.623 |
| NCI-H2085 | 0.418 | 0.459 | 0.36 | 0.43 | 0.564 | 0.915 | 0.959 | 0.704 | 0.551 | 0.55 | 0.475 | 0.558 | 0.446 | 0.531 | 0.833 | 0.814 | 0.843 | 0.56 |
| NCI-H2347 | 0.467 | 0.782 | 0.558 | 0.495 | 0.495 | 0.913 | 0.92 | 1 | 0.369 | 0.316 | 0.27 | 0.257 | 0.264 | 0.26 | 0.803 | 0.531 | 0.737 | 0.501 |
| NCI-H1944 | 0.33 | 0.345 | 0.306 | 0.298 | 0.277 | 0.886 | 0.841 | 0.7 | 0.631 | 0.402 | 0.433 | 0.359 | 0.328 | 0.283 | 1.25 | 1.13 | 0.992 | 0.857 |
| NCI-H596 | 0.388 | 0.349 | 0.366 | 0.348 | 0.328 | 0.957 | 0.895 | 0.832 | 0.955 | 0.759 | 0.905 | 0.79 | 0.654 | 0.446 | 1.01 | 0.974 | 1.04 | 1.02 |
| NCI-H520 | 0.238 | 0.278 | 0.201 | 0.185 | 0.184 | 0.711 | 0.712 | 0.662 | 0.501 | 0.633 | 0.678 | 0.279 | 0.55 | 0.502 | 0.734 | 0.694 | 0.724 | 0.648 |

From the supplement of paper PMC10307832
